# Laboratory results from patent publication EP3262036B1, “THERAPEUTIC PYRIDAZINE COMPOUNDS AND USES THEREOF” (priority 2015, dated 2016).
# Where a name gives a salt, the structure may show the parent alone.
# Target: BRG1 (Homo sapiens, UniProt P51532)
# Experiment: biochemical
# Assay type: binding
# Conditions: BRG1 HTRF IC50 (µM)
# From the text: IC50 measurements for inhibitors using BRG1 TR-FRET Binding Assay
# Chain of BRG1 (P51532 1448-1575): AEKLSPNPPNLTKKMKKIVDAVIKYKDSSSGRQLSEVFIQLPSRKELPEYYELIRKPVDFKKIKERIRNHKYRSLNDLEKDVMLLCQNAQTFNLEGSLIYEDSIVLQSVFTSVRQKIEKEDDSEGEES
row,IC50,SMILES
1,0.112 µM,"Nc1nnc(-c2ccccc2O)cc1C1CCCN(Cc2ccccc2)C1 (centres unmarked) [Example 214, 2-[6-amino-5-(1-benzyl-3-piperidyl)pyridazin-3-yl]phenol]"
2,0.743 µM,"Nc1nnc(-c2ccccc2O)cc1C1CCNC1 (centres unmarked) [Example 215, 2-(6-amino-5-(pyrrolidin-3-yl)pyridazin-3-yl)phenol hydrochloride]"
3,0.765 µM,"CN1CCC(c2cc(-c3ccccc3O)nnc2N)C1 (centres unmarked) [Example 216, 2-(6-amino-5-(1-methylpyrrolidin-3-yl)pyridazin-3-yl)phenol 2,2,2-trifluoroacetate]"
4,0.36 µM,"Cc1ccc(S(=O)(=O)N2CCC(c3cc(-c4ccccc4O)nnc3N)CC2)cc1 [Example 219, 2-(6-amino-5-(1-tosylpiperidin-4-yl)pyridazin-3-yl)phenol]"
5,0.0889 µM,"Cc1ccc(S(=O)(=O)N2CC=C(c3cc(-c4ccccc4O)nnc3N)CC2)cc1 [Example 222, 2-(6-amino-5-(1-tosyl-1,2,3,6-tetrahydropyridin-4-yl)pyridazin-3-yl)phenol]"
6,0.0602 µM,"Nc1nnc(-c2ccccc2O)cc1C1CCN(S(=O)(=O)c2ccccc2)CC1 [Example 224, 2-(6-amino-5-(1-(phenylsulfonyl)piperidin-4-yl)pyridazin-3-yl)phenol]"
7,0.0848 µM,"CC(=O)N1CCC(c2cc(-c3ccccc3O)nnc2N)CC1 [Example 227, 1-(4-(3-amino-6-(2-hydroxyphenyl)pyridazin-4-yl)piperidin-1-yl)ethanone]"
8,0.0537 µM,"CS(=O)(=O)N1CCC(c2cc(-c3ccccc3O)nnc2N)CC1 [Example 228, 2-(6-amino-5-(1-(methylsulfonyl)piperidin-4-yl)pyridazin-3-yl)phenol]"
9,0.0437 µM,"CC(C)(O)C(=O)N1CCC(c2cc(-c3ccccc3O)nnc2N)CC1 [Example 229, 1-(4-(3-amino-6-(2-hydroxyphenyl)pyridazin-4-yl)piperidin-1-yl)-2-hydroxy-2-methylpropan-1-one]"
10,0.0549 µM,"Nc1nnc(-c2cc(F)ccc2O)cc1-c1ccccc1 [Example 230, 2-(6-amino-5-phenylpyridazin-3-yl)-4-fluorophenol]"
11,0.995 µM,"Nc1nnc(-c2ccc(F)cc2O)cc1-c1ccccc1 [Example 231, 2-(6-amino-5-phenylpyridazin-3-yl)-5-fluorophenol]"
12,0.176 µM,"Nc1nnc(-c2cc(F)cc(F)c2O)cc1-c1ccccc1 [Example 232, 2-(6-amino-5-phenylpyridazin-3-yl)-4,6-difluorophenol]"
13,0.435 µM,"Nc1nnc(-c2c(O)cccc2F)cc1-c1ccccc1 [Example 233, 2-(6-amino-5-phenylpyridazin-3-yl)-3-fluorophenol]"
14,0.102 µM,"Nc1nnc(-c2ccccc2O)cc1C(=O)NCc1ccccc1 [Example 234, 3-amino-N-benzyl-6-(2-hydroxyphenyl)pyridazine-4-carboxamide]"
15,0.281 µM,"Nc1nnc(-c2ccccc2O)cc1OC1CCCNC1 (centres unmarked) [Example 245, 2-(6-amino-5-(piperidin-3-yloxy)pyridazin-3-yl)phenol]"
16,0.26 µM,"CN1CCCC(Oc2cc(-c3ccccc3O)nnc2N)C1 (centres unmarked) [Example 246, 2-(6-amino-5-((1-methylpiperidin-3-yl)oxy)pyridazin-3-yl)phenol]"

row,SMILES,IC50
1,"Nc1nnc(-c2ccccc2O)cc1C1=CCN(Cc2ccccc2)CC1 [Example 223, 2-(6-amino-5-(1-benzyl-1,2,3,6-tetrahydropyridin-4-yl)pyridazin-3-yl)phenol]",0.0205 µM
2,"C[C@@H]1CN(c2cc(-c3ccccc3O)nnc2N)C[C@@H](C)O1 [Example 242, 2-[6-amino-5-[(2R,6R)-2,6-dimethylmorpholin-4-yl]pyridazin-3-yl]phenol]",0.0589 µM
3,"C[C@@H]1CN(c2cc(-c3ccccc3O)nnc2N)C[C@H](C)O1 [Example 243, 2-[6-amino-5-[(2S,6R)-2,6-dimethylmorpholin-4-yl]pyridazin-3-yl]phenol]",0.0324 µM
4,"C[C@H]1CN(c2cc(-c3ccccc3O)nnc2N)C[C@H](C)O1 [Example 244, 2-[6-amino-5-[(2S,6S)-2,6-dimethylmorpholin-4-yl]pyridazin-3-yl]phenol]",0.0379 µM
